According to patent EP0705258B1, “AZOLYL-CYCLIC AMINE DERIVATIVES WITH IMMUNOMODULATORY ACTIVITY” (Knoll AG, priority 1993, dated 1995):

These compounds were tested on Zymosan Stimulated Macrophages (assay: Inhibition of Arachidonic Acid Release from Zymosan Stimulated Macrophages (Test D)). Conditions: Mus musculus, Macrophage, tested at 100, 50, 20, 10, 5 and 1 µM.
Format: cell-based, MF1 mice
Experimental: Female MF1 mice (weighing 20 to 25 g) were killed using a rising concentration of CO2. The mice were laid on their backs and the abdomens wiped with 70% alcohol. The skin was pulled back, exposing the peritoneal wall. Medium A (5 ml) (see below) was injected into the peritoneal cavity of each mouse followed by approximately 1 ml of air using a 20 ml syringe and a 21G x 40 mm needle in order to form a suspension of macrophage cells. The medium and cells were then removed using a 19G x 40 mm needle. The resulting suspension was returned to a sterile beaker kept on ice. The extracts from all the mice were pooled and this pooled cell suspension was counted using a Coulter counter and adjusted to a final cell count of 1 - 1.3 x 10^6 cells/ml prior to labelling with [^3H]-arachidonic acid. Typically five mice provided sufficient cells for each multiwell plate. Sufficient [^3H]arachidonic acid in ethanol to give a final concentration of 1.6 µCi/ml (equivalent to 40 µCi/plate) was blown to dryness under nitrogen. The arachidonic acid was then resuspended in 1 or 2 ml of the cell suspension which was then mixed with the remainder of the cell suspension in a centrifuge bottle. The labelled cell suspension was then plated out into sterile plastic 96 flat-bottomed well plates (250 µl per well) and incubated overnight at 37°C in a moist atmosphere of 5% CO2, 95% air. The following day, non-adherent cells were removed by washing 3 times with sterile phosphate buffered saline (PBS). The adherent peritoneal macrophages were then cultured for a further 24 hours in the presence or absence of drugs, in medium B (see below) at 37° in a 5% CO2 atmosphere in order to measure the effects of drugs on the spontaneous release of arachidonic acid in the absence of stimulus. After this incubation, supernatants were removed to give media 1 and stored in sealed multi-well plates at 4°C prior to scintillation counting. Drugs which potentiated spontaneous release of arachidonic acid (125% of controls) were deemed to be toxic at the concentration at which this phenomenon occurred. The supernatants were replaced by fresh medium C containing fresh drug and a stimulus. Three drugs were tested at six concentrations (100, 50, 20, 10, 5 and 1 µM) in replicates of four on each plate. The other wells contained controls consisting of a positive control (e.g. dexamethasone), medium (B) only and medium C only. Incubation was then continued for a further 5 hours, whereupon the supernatants were collected to give media 2 and the adherent cells washed with PBS. The cells were then lysed with 100 µl of 0.1% TRITON® X100 in a 0.1% solution of bovine serum albumin in 0.9% saline and mechanically disrupted to give cell lysates. These supernatants (media 2) and cell lysates (Cells) were also stored in sealed multi-well plates at 4°C prior to scintillation counting. 200 µl aliquots of media, or 100 µl aliquots of cells were counted using 2 ml of OPTIPHASE "HIGH SAFE" (Trademark of LKB) as scintillant. […] The value for the arachidonic acid release in the absence of stimulus (spontaneous, cpm of media 2) from cells which had been exposed to neither stimulus nor drug was subtracted from all equivalent values (cpm media 2, stimulated with or without drug) to give the net stimulated release. The percentage inhibition of arachidonic acid release caused by a drug may then be calculated using the following equation. % Inhibition = 100 -(net stimulated release in presence of drug x 100)/(net stimulated release in absence of drug) [formula] […] The zymosan stimulant was prepared as follows:- zymosan (200mg) (supplied by Sigma) was added to PBS (20ml). The mixture was boiled for 30 minutes and the volume restored to 20ml with water. The zymosan was harvested by centrifugation at 500Xg for 5 minutes, washed twice by resuspension in PBS (10ml) and centrifugation. After the final separation, the zymosan was resuspended in 20ml PBS and stored as lml aliquots at -20°C. […]

**Q.** Which IC50 does the source give for c1ccc(OCCN2CCC(CCn3ccnc3)CC2)cc1 [Example 87, 4-[2-(Imidazol-1-yl)ethyl]-1-(2-phenoxyethyl)piperidine] here?
**A.** 18 µM

**Q.** How did the IC50 turn out when C(=Cc1ccccc1)CN1CCC(CCn2ccnc2)CC1 [Example 90, 1-Cinnamyl-4-[2-(imidazol-1-yl)ethyl]-piperidine] was run?
**A.** 31 µM

**Q.** With O=C(CN1CCC(CCn2ccnc2)CC1)Nc1ccc(C(F)(F)F)cc1 [Example 91, 4-[2-(Imidazol-1-yl)ethyl]piperidino-4'-trifluoromethylacetanilide] as the compound, how does the IC50 read?
**A.** 17 µM

**Q.** For CC(c1ccc(Cl)cc1)N1CCC(CCn2ccnc2)CC1 (stereo not shown) [Example 93, 1-[1-(4-chlorophenyl)ethyl]-4-[2-(imidazol-1-yl)-ethyl]piperidine], which IC50 is on record?
**A.** 56 µM

**Q.** How did the IC50 turn out when Cl.Cl.c1ccc(CCCN2CCC(CCn3ccnc3)CC2)cc1 [Example 98, 4-[2-(imidazol-1-yl)ethyl]-1-(3-phenylpropyl)piperidine dihydrochloride] was run?
**A.** 62 µM

**Q.** Which IC50 does the source give for c1ccc(CCCN2CCC(Cn3ccnc3)CC2)cc1 [Example 102, 4-Imidazol-1-ylmethyl-1-(3-phenylpropyl)piperidine] here?
**A.** 54 µM

**Q.** With CC1CN(CCCc2ccccc2)CCC1CCn1ccnc1 (stereo not shown) [Example 103, 4-[2-(Imidazol-1-yl)ethyl]-3-methyl-1-(3-phenylpropyl)piperidine] as the compound, how does the IC50 read?
**A.** 28 µM

**Q.** Which IC50 does the source give for c1ccc(CCCN2CCC(CCn3ccnc3-c3ccccc3)CC2)cc1 [Example 109, 4-[2-(2-Phenylimidazol-1-yl)ethyl]-1-(3-phenylpropyl)piperidine] here?
**A.** 14 µM

**Q.** For Cc1nc2ccccc2n1CCC1CCN(CCCc2ccccc2)CC1 [Example 112, 2-Methyl-1-{2-[1-(3-phenylpropyl)piperidin-4-yl]ethyl}benzimidazole], which IC50 is on record?
**A.** 16 µM

**Q.** CC(Cn1ccnc1)C1CCN(CCCc2ccccc2)CC1 (stereo not shown) [Example 113, 4-[2-(Imidazol-1-yl)-1-methylethyl]-1-(3-phenylpropyl)piperidine] was tested. Which IC50 did it give?
**A.** 33 µM

**Q.** For c1ccc(CCCN2CCC(CCn3cnc4ccccc43)CC2)cc1 [Example 114, 1-{2-[1-(3-Phenylpropyl)piperidin-4-yl]-ethyl}benzimidazole], which IC50 is on record?
**A.** 34 µM

**Q.** Which IC50 does the source give for Cc1nc(Cl)c(Cl)n1CCC1CCN(CCCc2ccccc2)CC1 [Example 115, 4-[2-(4,5-Dichloro-2-methylimidazol-1-yl)ethyl]-1-(3-phenylpropyl)piperidine] here?
**A.** 31 µM

**Q.** With Cc1ncn(CCC2CCN(CCCc3ccccc3)CC2)c1C [Example 116, 4-[2-(4,5-Dimethylimidazol-1-yl)ethyl]-1-(3-phenylpropyl)piperidine] as the compound, how does the IC50 read?
**A.** 18 µM

**Q.** How did the IC50 turn out when Cc1nccn1CCC1CCN(CCCc2ccccc2)CC1 [Example 117, 4-[2-(2-Methylimidazol-1-yl)ethyl]-1-(3-phenylpropyl)piperidine] was run?
**A.** 21 µM

**Q.** How did the IC50 turn out when Cc1ccc(CCCN2CCC(CCn3ccnc3)CC2)cc1 [Example 122, 4-[2-(Imidazol-1-yl)ethyl]-1-[3-(4-methylphenyl)propyl]piperidine] was run?
**A.** 52 µM

**Q.** For Clc1ccc(CCCN2CCC(CCn3ccnc3)CC2)cc1 [Example 123, 1-[3-(4-Chlorophenyl)propyl]-4-[2-(imidazol-1-yl)ethyl]piperidine], which IC50 is on record?
**A.** 35 µM

**Q.** Which IC50 does the source give for CSc1ccc(CCCN2CCC(CCn3ccnc3)CC2)cc1 [Example 127, 4-[2-(Imidazol-1-yl)ethyl]-1-[3-(4-methylthiophenyl)propyl]piperidine] here?
**A.** 16 µM

**Q.** With c1ccc(CCN2CCC(CCn3ccnc3)CC2)cc1 [Example 128, 4-[2-(Imidazol-1-yl)ethyl]-1-phenethylpiperidine] as the compound, how does the IC50 read?
**A.** 27 µM

**Q.** c1ccc(CCCCN2CCC(CCn3ccnc3)CC2)cc1 [Example 129, 4-[2-(Imidazol-1-yl)ethyl]-1-(4-phenylbutyl)piperidine] was tested. Which IC50 did it give?
**A.** 16 µM

The compounds below were run on paw oedema (assay: Carrageenan-induced rat paw oedema test (Test E)). Conditions: oral dosing at 100 mg/kg; active = 20% or greater inhibition of paw oedema in at least two out of three tests.
Format: in vivo, rats
Experimental: Female rats, weight range 125-150 g were fasted overnight. One of the hind legs of each animal was marked with a line at the connection between the cuboid/navicular and calcaneus/talus bones. Groups of six rats were orally dosed at 10 ml/kg, in random order, with a given dose of the test compound given as a solution or suspension in 10% (w/v) aqueous acacia solution. One hour after dosing, 0.1 ml of 1% (w/v) sterile carrageenan λ in normal saline was injected deeply into the plantar surface of the marked hind foot of each rat. The volume of the foot (up to the marked line) was measured immediately after injection using duplicate water displacement readings. Three hours after injection the foot volume was measured again and the percentage increase in foot volume relative to the initial reading was calculated. The increase in foot volume (i.e. the degree of oedema) in drug treated animals when compared with that in the drug untreated control gave the degree of inhibition of paw oedema by the drug. […] Statistical significance was assessed using the Student's t test for single dose studies and Dunnett's test for multiple dose studies. More advantageous compounds were active in both Tests D and E.

**Q.** With c1ccc(OCCN2CCC(CCn3ccnc3)CC2)cc1 [Example 87, 4-[2-(Imidazol-1-yl)ethyl]-1-(2-phenoxyethyl)piperidine] as the compound, how does the “deemed to be active in Test E” value read?
**A.** active

**Q.** For CC(c1ccc(Cl)cc1)N1CCC(CCn2ccnc2)CC1 (stereo not shown) [Example 93, 1-[1-(4-chlorophenyl)ethyl]-4-[2-(imidazol-1-yl)-ethyl]piperidine], which “deemed to be active in Test E” value is on record?
**A.** active

**Q.** For Cl.Cl.c1ccc(CCCN2CCC(CCn3ccnc3)CC2)cc1 [Example 98, 4-[2-(imidazol-1-yl)ethyl]-1-(3-phenylpropyl)piperidine dihydrochloride], which “deemed to be active in Test E” value is on record?
**A.** active
